# Test results published in ChEMBL document CHEMBL4725429, “Discovery and Evaluation of Pyrazolo[3,4-d]pyridazinone as a Potent and Orally Active Irreversible BTK Inhibitor” (ACS Med Chem Lett, 2020).
# What was measured:
# [1] = molecular target: Tyrosine-protein kinase BTK (Homo sapiens, UniProt Q06187); assay: Inhibition of recombinant human His-tagged full length BTK expressed in baculovirus expression system using TK1 as substrate incubated for 60 mins by HTRF assay
# [2] = Cmax in BALB/c mouse 2 mg/kg, po measured upto 24 hrs by LC-MS/MS analysis; assay type: ADME, organism-based; set-up: route oral, dose 2 mg/kg, time <=24; details: in vivo
# [3] = AUC in BALB/c mouse 2 mg/kg, po measured upto 24 hrs by LC-MS/MS analysis; assay type: ADME, organism-based; set-up: route oral, dose 2 mg/kg, time <=24; details: in vivo
# [4] = Protein binding in human plasma at 2 uM incubated for 4 hrs by LC-MS/MS analysis; assay type: ADME, cell-free; details: read-out: PPB (converted)
# [5] = Protein binding in rat plasma at 2 uM incubated for 4 hrs by LC-MS/MS analysis; assay type: ADME, cell-free; details: read-out: PPB (converted)
# [6] = Protein binding in mouse plasma at 2 uM incubated for 4 hrs by LC-MS/MS analysis; assay type: ADME, cell-free; details: read-out: PPB (converted)
# [7] = Half life in Sprague-Dawley rat at 2 mg/kg, iv measured upto 24 hrs by LC-MS/MS analysis; assay type: ADME, organism-based; details: in vivo, 2 mg/kg, 24 h
# [8] = Cmax in Sprague-Dawley rat at 2 mg/kg, iv measured upto 24 hrs by LC-MS/MS analysis; assay type: ADME, organism-based; set-up: route intravenous, time <=24; details: in vivo, 24 h
# [9] = AUC (0 to last) in Sprague-Dawley rat at 2 mg/kg, iv measured upto 24 hrs by LC-MS/MS analysis; assay type: ADME, organism-based; set-up: route intravenous, dose 2 mg/kg, time <=24; details: in vivo, 24 h
# [10] = AUC (0 to last) in Sprague-Dawley rat at 10 mg/kg, po measured upto 24 hrs by LC-MS/MS analysis; assay type: ADME, organism-based; set-up: route oral, dose 10 mg/kg, time <=24; details: in vivo
# [11] = Oral bioavailability in Sprague-Dawley rat at 10 mg/kg measured upto 24 hrs by LC-MS/MS analysis; assay type: ADME, organism-based; details: in vivo
# [12] = Half life in BALB/c mouse at 1 mg/kg, iv measured upto 24 hrs by LC-MS/MS analysis; assay type: ADME, organism-based; details: in vivo
# [13] = AUC (0 to last) in BALB/c mouse at 1 mg/kg, iv measured upto 24 hrs by LC-MS/MS analysis; assay type: ADME, organism-based; set-up: route intravenous, dose 1 mg/kg, time <=24; details: in vivo
# [14] = Oral bioavailability in BALB/c mouse at 2 mg/kg measured upto 24 hrs by LC-MS/MS analysis; assay type: ADME, organism-based; details: in vivo
# Chain of Tyrosine-protein kinase BTK (Q06187 whole entry): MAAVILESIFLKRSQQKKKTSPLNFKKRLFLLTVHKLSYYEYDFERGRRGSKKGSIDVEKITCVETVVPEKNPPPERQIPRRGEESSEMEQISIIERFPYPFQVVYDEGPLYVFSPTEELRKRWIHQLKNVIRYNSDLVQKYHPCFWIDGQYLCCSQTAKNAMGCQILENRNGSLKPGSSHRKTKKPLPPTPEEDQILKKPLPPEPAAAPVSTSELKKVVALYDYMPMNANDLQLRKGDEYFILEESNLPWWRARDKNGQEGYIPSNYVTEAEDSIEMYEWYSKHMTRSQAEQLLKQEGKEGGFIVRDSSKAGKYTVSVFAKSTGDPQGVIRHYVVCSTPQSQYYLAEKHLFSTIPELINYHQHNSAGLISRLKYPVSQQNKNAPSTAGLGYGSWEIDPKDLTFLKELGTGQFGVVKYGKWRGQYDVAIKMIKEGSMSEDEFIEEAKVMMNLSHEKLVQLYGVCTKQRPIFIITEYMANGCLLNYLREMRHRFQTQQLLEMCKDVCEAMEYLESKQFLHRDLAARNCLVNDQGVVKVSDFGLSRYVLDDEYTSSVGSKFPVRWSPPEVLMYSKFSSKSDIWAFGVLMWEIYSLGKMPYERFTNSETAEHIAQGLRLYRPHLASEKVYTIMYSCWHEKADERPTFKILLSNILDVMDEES
smiles,measurement,setting,value
CN(C)C/C=C/C(=O)N1CCC[C@@H](n2nc(-c3ccc(Oc4ccccc4)cc3)c3c(N)n[nH]c(=O)c32)C1,IC50,[1],2.6 nM
C=CC(=O)N1CCC[C@@H](Nc2ncnc3[nH]c(=O)c(-c4ccc(Oc5ccccc5)cc4)cc23)C1,IC50,[1],> 10000 nM
C=CC(=O)N1CC2(CC(n3nc(-c4ccc(Oc5ccccc5)cc4)c4c(N)n[nH]c(=O)c43)C2)C1,IC50,[1],46 nM
C=CC(=O)N1CCC[C@@H](n2nc(-c3ccc(Oc4ccccc4)cc3)c3c(N)ncnc32)C1 [IBRUTINIB],Cmax,[2],55.3 nM
same,AUC at 24 h,[3],21.4 ng·h/mL
same,"fraction unbound at 4 h, 2 µM",[4],0.031
same,"fraction unbound at 4 h, 2 µM",[5],0.022
same,"fraction unbound at 4 h, 2 µM",[6],0.038
same,t1/2,[7],19.2 min
same,Cmax,[8],150 ng/mL
same,AUClast,[9],643 ng·h/mL
same,AUC(0-t) at 24 h,[10],318 ng·h/mL
same,bioavailability,[11],10.3%
same,half-life,[12],20.4 min
same,AUC(0-t) at 24 h,[13],628 ng·h/mL
same,bioavailability,[14],1.8%
C=CC(=O)NC1CCC[C@@H](n2nc(-c3ccc(Oc4ccccc4)cc3)c3c(N)n[nH]c(=O)c32)C1 (stereo partly specified),IC50,[1],10 nM
C=CC(=O)N1CCCC(n2nc(-c3ccc(Oc4ccccc4)cc3)c3cc4c(N)ncnc4cc32)C1 (stereo unspecified),IC50,[1],1240 nM
C=CC(=O)N(C)CCn1nc(-c2ccc(Oc3ccccc3)cc2)c2c(N)n[nH]c(=O)c21,IC50,[1],1.2 nM
same,Cmax,[2],123 nM
same,AUC at 24 h,[3],49.5 ng·h/mL
CC#CC(=O)N1CCC[C@@H](n2nc(-c3ccc(Oc4ccccc4)cc3)c3c(N)n[nH]c(=O)c32)C1,IC50,[1],12 nM
C=CC(=O)N1CCC[C@@H](Nc2ncnc(N)c2C(=O)c2ccc(Oc3ccccc3)cc2)C1,IC50,[1],921 nM
C=CC(=O)N1CCC[C@@H](n2nc(-c3ccc(Oc4ccccc4)cc3)c3c(N)nn(CC)c(=O)c32)C1,IC50,[1],> 1000 nM
N#C/C(=C\C1CC1)C(=O)N1CCC[C@@H](n2nc(-c3ccc(Oc4ccccc4)cc3)c3c(N)n[nH]c(=O)c32)C1,IC50,[1],22 nM
C=CC(=O)N1CCC[C@@H](n2nc(-c3ccc(Oc4ccccc4)cc3)c3c(N)noc(=O)c32)C1,IC50,[1],> 1000 nM
